Measurements from EP1655287A1, “PROBE FOR DISEASES WITH AMYLOID ACCUMULATION, AMYLOID-STAINING AGENT, REMEDY AND PREVENTIVE FOR DISEASES WITH AMYLOID ACCUMULATION AND DIAGNOSTIC PROBE AND STAINING AGENT FOR NEUROFIBRILLARY CHANGE” (priority 2003, dated 2005).

Columns and labels:
[1] = test system: Amyloid β-protein; assay: Screening of the degree of β-structure recognition (fluorescence, in the presence of Congo red); type: binding; conditions: test compound 5 µM, amyloid β-protein 5 µM, Congo red 0.1 µM, phosphate buffer pH 7.4
[2] = Acute toxicity testing, intravenous administration; type: in vivo; conditions: male Crj:CD1 mice, via tail vein, observed up to 7 days; for MTD at 168 h: mouse, in vivo, iv, read-out: Maximum Tolerated Dose (mg/kg, intravenous administration)
Experimental: The following explanation is made of testing methods for properties of the compounds of the present invention. (A) Testing of acute toxicity Acute toxicity of the inventive compounds was determined employing mice by intravenous administration. Male Crj:CD1 mice were used and divided into groups of 4 mice, with an average weight of each group of 31-32 g. […] Up to 7 days after administration, observations were made.

[3] = Blood-brain barrier permeability after intravenous administration; conditions: for Plasma: mice, content in plasma two minutes after intravenous administration; for tissue uptake at 2 min: mouse, brain, iv
Experimental: (B) Testing of blood-brain barrier permeability Measurements of blood-brain barrier permeability were made according to the following procedures. Compounds of the present invention were intravenously administered to mice to determine their in vivo blood-brain barrier permeability. • (1) Mice utilized Slc:ICR weighing 30-40 g (7 weeks old, n=3) (Nippon SLC). • (2) A test compound was dissolved in a mixture of 1N HCl, polyethylene glycol 400, and DMSO, or in DMSO or ethyl alcohol, and then diluted with purified water, and injected via tail vein. Two minutes after administration, the mice, under ether anesthesia, were subjected to taking blood from the abdominal aorta with a heparin-treated syringe and removing the brain. • (3) After taking blood, blood samples were centrifuged at 14,000 rpm at 4°C for 10 minutes, and their supernatants were kept at -80°C as plasma sample. The brain (including cerebellum) was kept at -80°C after its removal. • (4) The plasma sample, when used, was thawed, diluted with purified water, and then applied to a conditioned C18 solid-phase extraction cartridge (bond elute C18, 200 mg, Varian), followed by elution with methyl alcohol. Alternatively, after thawing the plasma sample, a diethyl ether/cyclohexane mixture was added, and the mixture was shaken, and then centrifuged to separate an oil layer. • (5) The brain material, when used, was subjected to measuring its wet weight with the brain remaining frozen, and saline was added to the brain for homogenization. The homogenate was centrifuged for 10 minutes, and the supernatant was applied to a conditioned C18 solid-phase extraction cartridge and eluted with methyl alcohol. Alternatively, after measuring the wet weight of the frozen brain, a diethyl ether/cyclohexane mixture was added to the brain, and the mixture was homogenized, shaken, and then centrifuged to separate an oil layer. • (6) The absorbance and fluorescence were detected employing high performance liquid chromatography. • (7) For each of the plasma and brain, the content of the test compound in the plasma or brain (%ID (injected dose)/ml or g) was determined, relative to the administered dose.

[4] = biological target: T1, senile plaques (Homo sapiens, UniProt P05067); assay: Staining of senile plaques and diffuse plaques in brain sections, compared with thioflavin S, BSB or anti-Aβ antibody 6F/3D immunostaining; type: binding, patient with Alzheimer's disease; conditions: 100 µM compound in 50% ethanol; for staining properties in sections of the brain of a patient with Alzheimer's disease: compared with thioflavin S (and BSB) on adjacent sections; for staining properties compared with immunostaining of anti-Aβ antibody 6F/3D: adjacent sections immunostained with 6F/3D
T1 construct: The former has, as the main component, amyloid β-protein (Aβ protein) taking β-sheet structures; from tissue; host or cells: paraffin-embedded temporal lobe or hippocampus sections of an Alzheimer's disease patient's brain (Fukushimura Hospital)
T1 sequence (P05067 672-713 limits assumed): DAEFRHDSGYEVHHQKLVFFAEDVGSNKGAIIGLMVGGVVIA
Description: The following explanation is made about testing of staining properties of the compounds of the present invention on brain sections of an Alzheimer's disease patient. • (1) Temporal lobe or hippocampus specimens of the brain of a patient who had been definitely diagnosed pathologically as Alzheimer's disease and of a normal aged individual were used. These specimens were provided from Fukushimura Hospital, our joint research facility, with the consent to their use for research purpose received from the bereaved family of the patient (BF Research Laboratories Institutional Ethics Board Permission No. RS-99-02). • (2) The brain tissues embedded in paraffin were sliced 6 or 8 µm thick, extended on slides, and dried. The paraffin-embedded brain sections were deparaffined by washing sequentially with xylene (10 minutes, twice), 100% ethanol (15 minutes, twice), 95% ethanol (15 minutes, twice), and a stream of water (10 minutes). • (3) Pre-treatment for staining with compounds of the present invention involved treating the sections for eliminating self-fluorescence due to lipofuscin. First, the deparaffined sections were immersed into a 10% formalin solution for 60 minutes and washed with PBS for 5 minutes, followed by immersion into a 0.25% solution of KMnO4 for 90 minutes. After washing twice with PBS for 2 minutes each, the sections were immersed into a solution of 0.1% K2S2O5/oxalic acid for about 30 seconds each, and then washed three times with PBS for 2 minutes each. • (4) About 150 µl of a 100 µM solution of a compound of the present invention dissolved in 50% ethanol was added dropwise onto the sections and allowed the reaction to be carried out for 10 minutes. The sections were dipped into tap water five times, and then 50% ethanol three to five times, followed by immediate classification. After that, the sections were immersed into PBS for 60 minutes, enclosed with Fluor Save Reagent (Calbiochem), and examined under a fluorescent microscope (Nikon, Eclips E800). Pictures were taken using a digital camera (Plaroid PDMCII).
Immunostaining was carried out as follows. • (a) Procedures for immunostaining amyloid β-protein: • (1) After the sections were deparaffined, the sections were washed twice in distilled water for 2 minutes each, and tissues were marked with an Immunopen. About 150 µl of formic acid was added dropwise and allowed to stand at room temperature for 5 minutes. The sections were washed with tap water for 5 minutes and immersed into cold PBS-Tween 20 for 2 minutes, and then about 150 µl of a 0.05% trypsin solution was added dropwise and allowed the reaction to be carried out at 37°C for 15 minutes. • (2) In an ice bath, the sections were washed twice with cold PBS-Tween 20 for 5 minutes each, and two drops of blocking serum were added and allowed the reaction to be carried out at 37°C for 15 minutes. Excess water was removed, and about 150 µl of 6F/3D, an antibody specific to amyloid β-protein (DAKO; diluted 1:50) was added dropwise and allowed the reaction to be carried out at 37°C for 1 hour. • (3) Further, after washing five times with cold PBS-Tween 20 for 2 minutes each, two drops of a solution of goat antimouse IgG (H+L) conjugated to biotin were added and allowed the reaction to be carried out at 37°C for 1 hour. After that, the sections were washed three times with cold PBS-Tween 20 for 2 minutes each, and two drops of ABS solution (a streptavidin-biotin-peroxidase complex solution) were added and allowed to stand for 30 minutes. The sections were again washed three times with cold PBS-Tween 20 for 2 minutes each, and about 150 µl of DAB solution (prepared by dissolving 10 mg of DAB in 20 ml of 0.05 mol/l Tris-HCl buffer and adding 100 µl of 3% hydrogen peroxide immediately before use) were added and allowed the color to be developed sufficiently. Then, the sections were washed with distilled water for 1 minute to stop the reaction, enclosed, and examined under a microscope.

Compound | Degree of β-structure recognition (%) [1] | staining properties in sections of the brain of a patient with Alzheimer's disease [4] | also measured
Cc1nc(/C=C/C=C/c2ccc(N(C)C)cc2)oc1C [BF-228, 2-[4-(4-dimethylaminophenyl)-1,3-butadienyl]-4,5-dimethyloxazole] | 83.8% | – | MTD at 168 h [2]: ≥ 10 mg/kg
Nc1ncc(-c2ccc3ccccc3n2)s1 [BF-240, 2-(2-aminothiazol-5-yl)quinoline] | 49.9% | – | –
CN(C)c1ncc(-c2ccc3ccccc3n2)o1 [BF-221, 2-(2-dimethylaminooxazol-5-yl)quinoline] | 73.8% | – | –
CN(C)c1ncc(/C=C/c2ccc3ccccc3n2)s1 [BF-222, 2-[2-(2-dimethylaminothiazol-5-yl)ethenyl]quinoline] | 62.3% | – | MTD at 168 h [2]: ≥ 10 mg/kg; Plasma [3]: 2.0 %ID/g or ml; tissue uptake at 2 min [3]: 13 %ID/g
Cc1ccc(S(=O)(=O)OCCOc2ccc3nc(/C=C/c4cnc(N(C)C)s4)sc3c2)cc1 [BF-251, 2-[2-(2-dimethylaminothiazol-5-yl)ethenyl]-6-[2-(4-tosyloxy)ethoxy]benzothiazole] | 37.5% | – | –
CNc1ccc(/C=C/C=C/c2nc3ccccc3s2)cc1 [BF-187, 2-[[4-(4-methylamino)phenyl]-1,3-butadienyl)benzothiazole] | 63.3% | stains senile plaques | Plasma [3]: 1.3 %ID/g or ml
O=C(O)c1cc(/C=C/c2ccc(/C=C/c3ccc(O)c(C(=O)O)c3)c(Br)c2)ccc1O [BSB, (trans, trans)-1-bromo-2,5-bis-(3-hydroxycarbonyl-4-hydroxy)styrylbenzen, reference compound] | – | stains both senile plaques and neurofibrillary tangles | –
Nc1ccc(/C=C/C=C/c2nc3ccc(O)cc3o2)c(O)c1 [BF-201] | 82.0% | stains senile plaques | staining properties compared with immunostaining of anti-Aβ antibody 6F/3D [4]: stains senile plaques
CN(C)c1nnc(/C=C/c2nc3ccccc3o2)o1 [BF-238, 2-[2-(2-dimethylamino-1,3,4-oxazol-5-yl)ethenyl]benzoxazole] | 52.3% | – | –
CNc1ccc(/C=C/C=C/c2nc3ccccc3o2)cc1 [BF-185, 2-[[4-(4-methylamino)phenyl]-1,3-butadienyl)benzoxazole] | 82.7% | mainly stains senile plaques | staining properties compared with immunostaining of anti-Aβ antibody 6F/3D [4]: stains senile plaques (Fig. 3, wedge-shaped arrowheads) and diffuse plaques; Plasma [3]: 1.0 %ID/g or ml
CN(C)c1ncc(/C=C/C=C/c2nc3ccccc3[nH]2)s1 [BF-231, 2-[4-(2-dimethylaminothiazol-5-yl)-1,3-butadienyl]benzoimidazole] | 47.2% | stains senile plaques | Maximum Tolerated Dose (mg/kg, intravenous administration) [2]: ≧ 10 mg/kg
thioflavin S [reference compound] | – | stains both senile plaques and neurofibrillary tangles | –
Cc1ccc(S(=O)(=O)OCCOc2ccc3nc(/C=C/c4cnc(N(C)C)s4)oc3c2)cc1 [BF-226, 2-[2-(2-dimethylaminothiazol-5-yl)ethenyl]-6-[2-(4-tosyloxy)ethoxy]benzoxazole] | 43.3% | – | –
2-[2-(2-dimethylamino-1,3,4-thiazol-5-yl)ethenyl]benzoxazole [BF-237] | 76.5% | – | –
CN(C)c1ncc(/C=C/c2nc3ccccc3[nH]2)s1 [BF-248, 2-[2-(2-dimethylaminothiazol-5-yl)ethenyl]benzimidazole] | 40.1% | – | –
Nc1cnc(-c2ccc3ccccc3n2)o1 [BF-255, 2-(5-アミノオキサゾール-2-イル)キノリン] | 65.8% | – | –
CNc1ncc(/C=C/c2ccc(O)cc2)s1 [BF-235, 5-(4-hydroxystyryl)-2-methylaminothiazole] | 65.5% | – | –
Cc1ccc2c(c1)sc(-c1ccc(N(C)C)cc1)[n+]2C [Thioflavin T, reference compound] | 61.8% | – | –
CN(C)c1cnc(/C=C/c2nc3ccccc3s2)o1 [BF-250, 2-[2-(5-dimethylaminooxazol-2-yl)ethenyl]benzothiazole] | 43.1% | – | –
CN(C)c1ncc(/C=C/c2nc3ccccc3s2)s1 [BF-196, 2-[2-(2-dimethylaminothiazol-5-yl)ethenyl]benzothiazole] | 53.5% | mainly stains senile plaques | staining properties compared with immunostaining of anti-Aβ antibody 6F/3D [4]: stains senile plaques; Plasma [3]: 1.8 %ID/g or ml; tissue uptake at 2 min [3]: 19 %ID/g
CCC[CH2][Sn]([CH2]CCC)([CH2]CCC)[c]1ccc2nc(C=Cc3cnc(N(C)C)s3)oc2c1 [BF-246, 6-tri(n-butyl)stannyl-2-[2-(2-dimethylaminothiazol-5-yl)ethenyl]benzoxazole] | 24.6% | – | –
CNc1ccc(/C=C/C=C/c2nc3ccccc3[nH]2)cc1 [BF-188, 2-[[4-(4-methylamino)phenyl]-1,3-butadienyl]benzoimidazole] | 68.9% | stains senile plaques | Plasma [3]: 1.7 %ID/g or ml
Cc1nc(/C=C/C=C/c2cnc(N(C)C)o2)oc1C [BF-229, 2-[4-(2-dimethylaminooxazol-5-yl)-1,3-butadienyl]-4,5-dimethyloxazole] | 70.7% | – | –
CN(C)c1ncc(/C=C/c2nc3ccc(OCCF)cc3s2)s1 [BF-252, 2-[2-(2-dimethylaminothiazol-5-yl)ethenyl]-6-[2-(fluoro)ethoxy]benzothiazole] | 47.0% | – | –
CN(C)c1ncc(-c2nc3ccccc3o2)s1 [BF-225, 2-(2-dimethylaminothiazol-5-yl)benzoxazole] | 87.5% | – | –
CN(C)c1ncc(/C=C/c2nc3ccc(I)cc3o2)s1 [BF-247, 6-(iodo)-2-[2-(2-dimethylaminothiazol-5-yl)ethenyl]benzoxazole] | 43.7% | – | –
CN(C)c1ncc(/C=C/c2nc3ccccc3o2)o1 [BF-230, 2-[2-(2-dimethylaminooxazol-5-yl)ethenyl]benzoxazole] | 74.0% | – | MTD at 168 h [2]: ≥ 10 mg/kg
CNc1ccc(/C=C/C=C/C=C/c2ccc3ccccc3n2)cc1 [BF-189, 1-(4-methylaminophenyl)-6-(2-quinolyl)-1,3,5-hexatrien] | 79.8% | stains senile plaques | MTD at 168 h [2]: ≥ 10 mg/kg
